Data set [1] concerns the target T1, kinase domain protein of RC kinase (Homo sapiens, UniProt Q56UN5).
T1 sequence (Q56UN5 1061-1324 limits assumed): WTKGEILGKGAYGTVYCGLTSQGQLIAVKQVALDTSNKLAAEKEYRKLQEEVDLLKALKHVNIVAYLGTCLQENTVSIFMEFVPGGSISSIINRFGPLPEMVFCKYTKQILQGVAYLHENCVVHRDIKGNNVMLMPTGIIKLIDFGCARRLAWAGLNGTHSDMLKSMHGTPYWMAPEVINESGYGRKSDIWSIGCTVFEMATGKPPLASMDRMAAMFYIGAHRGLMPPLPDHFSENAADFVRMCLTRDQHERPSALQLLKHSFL
Kind of data set: Enzymatic assay for kinase inhibitory activity (Crebtide substrate, LANCE readout), kinase domain protein. The class given is biochemical. The note with it: test compound 1 μM, ATP 1 μM, Crebtide 50 nM. The method, then:
Solutions of a test compound, Crebtide (a substrate), a kinase, and ATP were prepared using 1×MAPK Buffer (50 mM HEPES, 1 mM EGTA, […], 10 mM MgCl2, 2 mM DTT, and 0.01% Tween 20).
To each well, the test compound (1 μL) was first added (in duplicate) to reach a final concentration of 1 μM or 1×IC50 of the compound. The kinase (5 μL) was then added to each well to reach a final concentration of […] for the kinase domain or […] for the full-length domain. Each plate included a positive and negative controls in duplicate wells. Crebtide (2.5 μL) was then added to each well in duplicate to reach a final concentration of 50 nM. If the full-length kinase was used, the plates were incubated for 45 min at room temperature before proceeding further. ATP (2.5 μL) was added to each well to reach a final concentration of 1 μM for the kinase domain and 3 μM for the full-length.
After the addition of ATP, the plates were incubated for 45 min at room temperature. During the incubation, an EDTA solution (40 mM) and anti-Crebtide ([…]) were prepared. Additionally, a detection buffer stock solution was diluted ten fold before use.
After the incubation, the anti-Crebtide (5 μL) and EDTA (5 μL) were added to each well to reach their final concentrations of […] and 10 mM, respectively. The plates were allowed to develop at room temperature for 45 min. The plates were then read at 665 nm and 615 nm using Perkin Elmer Lance machine.
The biological results of inhibition of the kinase domain protein of RC kinase are summarized in Tables 2 and 3, wherein A represents at least 50% inhibition of the RC kinase activity at 1 μM; B represents no greater than 50% but at least 20% inhibition of the RC kinase activity at 1 μM; C represents no greater than 20% but at least 5% inhibition of the RC kinase activity at 1 μM; and D represents no greater than 5% inhibition of the RC kinase activity at 1 μM.
For orientation: In TR-FRET formats the signal depends on donor and acceptor labels being close together.

Where only a bound is given, the exact number is not on record here.

A word on the inhibition: it is the share of the control response that was lost under treatment. As a reminder, the melting point is the temperature, or range, at which the solid turns liquid.

For the compound `COc1ccccc1C(=O)Nc1ccc(Nc2n[nH]c(NCc3ccc(O)cc3)c2C(N)=O)cc1` [Compound D143, 5-((4-hydroxybenzyl)amino)-3-((4-(2-methoxybenzamido)phenyl)amino)-1H-pyrazole-4-carboxamide], the melting point fell in the range of 208 to 211 °C. In addition, in data set [1], the inhibition at 1 µM was ≥ 50%.

Take `NC(=O)c1c(Nc2cccc(Cl)c2)n[nH]c1NCc1ccco1` [Compound D96, 3-((3-chlorophenyl)amino)-5-((furan-2-ylmethyl)amino)-1H-pyrazole-4-carboxamide]: the melting point is 214 to 220 °C. The compound also came in with an inhibition at 1 µM in data set [1] of 20 to 50%.

`Cn1nc(CSc2ccccc2)c(CNc2[nH]nc(Nc3cccc(Cl)c3)c2C#N)c1Cl` [Compound C3]: the melting point was in the range of 100 to 104 °C. This compound yielded an inhibition at 1 µM in data set [1] of 5 to 20%.

Compound `NC(=O)c1c(Nc2cccc(Cl)c2)n[nH]c1NCc1cccs1` [Compound D95, 3-((3-chlorophenyl)amino)-5-((thiophen-2-ylmethyl)amino)-1H-pyrazole-4-carboxamide] came in with a melting point of 222 to 227 °C. Moreover, the inhibition at 1 µM in data set [1] was ≤ 5%.

`COc1cc(OC)c(OC)cc1CNc1[nH]nc(Nc2cccnc2)c1C(N)=O` [Compound D46, 3-(pyridin-3-ylamino)-5-((2,4,5-trimethoxybenzyl)amino)-1H-pyrazole-4-carboxamide]: the melting point fell in the range of 197 to 202 °C. The compound also showed an inhibition at 1 µM in data set [1] of 5 to 20%.

As for `NC(=O)c1c(Nc2ccc(NC(=O)c3cccc(F)c3)cc2)n[nH]c1NCc1ccc(O)cc1` [Compound D131], the melting point was 216 to 220 °C. The inhibition at 1 µM in data set [1] was ≥ 50%.

Compound `NC(=O)c1ccc(Nc2n[nH]c(NCc3ccc(O)cc3)c2C(N)=O)cc1` [Compound D63, 3-((4-carbamoylphenyl)amino)-5-((4-hydroxybenzyl)amino)-1H-pyrazole-4-carboxamide] came in with a melting point of 225 to 230 °C. The inhibition at 1 µM in data set [1] was ≥ 50%.

As for `N#Cc1cccc(Nc2n[nH]c(NCc3ccc(O)cc3)c2C(N)=O)c1` [Compound D66, 3-((3-cyanophenyl)amino)-5-((4-hydroxybenzyl)amino)-1H-pyrazole-4-carboxamide], the melting point was 189 to 194 °C. The inhibition at 1 µM in data set [1] is ≥ 50%.

`CN(C)c1ccc(Nc2n[nH]c(NCc3ccc(O)cc3)c2C(N)=O)cc1` [Compound D126, 3-((4-(dimethylamino)phenyl)amino)-5-((4-hydroxybenzyl)amino)-1H-pyrazole-4-carboxamide] had a melting point of 184 to 188 °C. Moreover, the inhibition at 1 µM in data set [1] was ≥ 50%.

Compound `COc1ccc(CNc2[nH]nc(Nc3cccc(Cl)c3)c2C#N)cc1F` [Compound C27] registered a melting point of 97 to 105 °C. The same compound returned an inhibition at 1 µM in data set [1] of 5 to 20%.

`CC(C)(C)c1ccc(Nc2n[nH]c(NCc3ccc(O)cc3)c2C(N)=O)cc1` [Compound D164, 3-((4-(tert-butyl)phenyl)amino)-5-((4-hydroxybenzyl)amino)-1H-pyrazole-4-carboxamide] yielded a melting point of 218 to 222 °C. In addition, the inhibition at 1 µM in data set [1] is ≥ 50%.

On to `CN1CCN(c2ccc(Nc3n[nH]c(NCc4ccc(O)cc4)c3C(N)=O)cc2Cl)CC1` [Compound D116], for which the melting point was 230 to 236 °C. Further, the inhibition at 1 µM in data set [1] is ≥ 50%.

In the case of `CCOc1ccc2ccccc2c1CNc1[nH]nc(Nc2cccnc2)c1C(N)=O` [Compound D43, 5-(((2-ethoxynaphthalen-1-yl)methyl)amino)-3-(pyridin-3-ylamino)-1H-pyrazole-4-carboxamide], the melting point was in the range of 231 to 236 °C. This compound showed an inhibition at 1 µM in data set [1] of 20 to 50%.

Consider `COc1ccc(CNc2[nH]nc(Nc3cccc(Cl)c3)c2C(N)=O)c(OC)c1OC` [Compound D69], for which the melting point lay within 196 to 200 °C. In data set [1], this compound displayed an inhibition at 1 µM of 5 to 20%.

On to `NC(=O)c1c(Nc2ccc(Cl)nc2)n[nH]c1NCc1ccc(O)cc1` [Compound D90, 3-((6-chloropyridin-3-yl)amino)-5-((4-hydroxybenzyl)amino)-1H-pyrazole-4-carboxamide], for which the melting point lay in the range of 221 to 225 °C. For the same compound, the inhibition at 1 µM in data set [1] is ≥ 50%.

`NC(=O)c1c(Nc2cccc(Cl)c2)n[nH]c1NCc1ccc(O)cc1` [Compound D1, 3-((3-chlorophenyl)amino)-5-((4-hydroxybenzyl)amino)-1H-pyrazole-4-carboxamide] showed a melting point of 196 to 200 °C. The inhibition at 1 µM in data set [1] was ≥ 50%.

As to `NC(=O)c1c(Nc2cccnc2)n[nH]c1NCc1ccc[nH]1` [Compound D53, 5-(((1H-pyrrol-2-yl)methyl)amino)-3-(pyridin-3-ylamino)-1H-pyrazole-4-carboxamide], the melting point lay within 201 to 206 °C. Also, the inhibition at 1 µM in data set [1] lay within 5 to 20%.

For the compound `NC(=O)c1c(Nc2ccc(N)cc2)n[nH]c1NCc1ccc(O)cc1` [Compound D101, 3-((4-aminophenyl)amino)-5-((4-hydroxybenzyl)amino)-1H-pyrazole-4-carboxamide], the melting point is 190 to 193 °C. In addition, the inhibition at 1 µM in data set [1] is ≥ 50%.

In turn, `COc1ccc(CNc2[nH]nc(Nc3cccnc3)c2C(N)=O)cc1` [Compound D151, 5-((4-methoxybenzyl)amino)-3-(pyridin-3-ylamino)-1H-pyrazole-4-carboxamide] had a melting point of 218 to 222 °C. In addition, the inhibition at 1 µM in data set [1] fell in the range of 20 to 50%.

In turn, `Cc1cn(-c2ccc(Nc3n[nH]c(NCc4ccc(O)cc4)c3C(N)=O)cc2)cn1` [Compound D98, 5-((4-hydroxybenzyl)amino)-3-((4-(4-methyl-1H-imidazol-1-yl)phenyl)amino)-1H-pyrazole-4-carboxamide] had a melting point of 257 to 260 °C. Besides, the inhibition at 1 µM in data set [1] is ≥ 50%.

`NC(=O)c1c(Nc2ccc(NC(=O)c3ccc(F)cc3)cc2)n[nH]c1NCc1ccc(O)cc1` [Compound D132, 3-((4-(4-fluorobenzamido)phenyl)amino)-5-((4-hydroxybenzyl)amino)-1H-pyrazole-4-carboxamide] displayed a melting point of 227 to 231 °C. The inhibition at 1 µM in data set [1] is ≥ 50%.

`NC(=O)c1c(Nc2ccc(F)c(Cl)c2)n[nH]c1NCc1ccc(O)cc1` [Compound D159, 3-((3-chloro-4-fluorophenyl)amino)-5-((4-hydroxybenzyl)amino)-1H-pyrazole-4-carboxamide] yielded a melting point of 178 to 183 °C. In data set [1], the inhibition at 1 µM is ≥ 50%.

Compound `CC(C)(C)OC(=O)Nc1ccc(Nc2n[nH]c(NCc3ccc(O)cc3)c2C(N)=O)cc1` [Compound D135] yielded a melting point of 222 to 226 °C. Also, the inhibition at 1 µM in data set [1] is ≥ 50%.

As for `NC(=O)c1c(Nc2ccc(F)cc2)n[nH]c1NCc1ccc(O)cc1` [Compound D163], the melting point fell in the range of 204 to 207 °C. In addition, the inhibition at 1 µM in data set [1] was ≥ 50%.

The compound `COc1ccc(CNc2[nH]nc(Nc3cccc(Cl)c3)c2C(N)=O)c(C)c1` [Compound D73] displayed a melting point of 195 to 199 °C. Moreover, in data set [1], the inhibition at 1 µM lay in the range of 20 to 50%.

Regarding `N#Cc1c(Nc2cccc(Cl)c2)n[nH]c1NCc1ccc(Cl)cc1Cl` [Compound C19], the melting point lay within 171 to 174 °C. Moreover, in data set [1], the inhibition at 1 µM is 5 to 20%.

For the compound `NC(=O)c1c(Nc2ccc(NC(=O)c3sc4cc(F)ccc4c3Cl)cc2)n[nH]c1NCc1ccc(O)cc1` [Compound D141, 3-((4-(3-chloro-6-fluorobenzo[b]thiophene-2-carboxamido)phenyl)amino)-5-((4-hydroxybenzyl)amino)-1H-pyrazole-4-carboxamide], the melting point is 228 to 232 °C. Besides, in data set [1], the inhibition at 1 µM was in the range of 20 to 50%.

In turn, `NC(=O)c1c(Nc2ccc3[nH]ncc3c2)n[nH]c1NCc1ccc(O)cc1` [Compound D76, 3-((1H-indazol-5-yl)amino)-5-((4-hydroxybenzyl)amino)-1H-pyrazole-4-carboxamide] gave a melting point of 250 to 260 °C. The inhibition at 1 µM in data set [1] is ≥ 50%.

Turning to `CC(=O)c1ccc(Nc2n[nH]c(NCc3ccc(O)cc3)c2C(N)=O)cc1` [Compound D62, 3-((4-acetylphenyl)amino)-5-((4-hydroxybenzyl)amino)-1H-pyrazole-4-carboxamide], the melting point lay in the range of 167 to 172 °C. Moreover, in data set [1], the inhibition at 1 µM is ≥ 50%.

`NC(=O)c1c(Nc2ccc(-c3cc(CO)c4ccccc4n3)cc2)n[nH]c1NCc1ccc(O)cc1` [Compound D125]: the melting point lay in the range of 216 to 220 °C. The inhibition at 1 µM in data set [1] was ≥ 50%.

Values taken from patent US8916555B2, “3,5-diaminopyrazole kinase inhibitors” (Axikin Pharmaceuticals, Inc., priority 2012, dated 2014).
